# Measurements taken from US20100298141A1, “SUBSTITUTED PYRIDINE N-OXIDE HERBICIDES” (E. I. DU PONT DE NEMOURS AND COMPANY, priority 2007, published 2010).
# Assays:
# duck salad = experiment: Test C flooded paddy test; assay type: in vivo, Heteranthera limosa; conditions: Flood
# Outline: (§1)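 Compound was added to standing water 3 cm above soil, flood maintained, and plants held in a greenhouse before visual scoring against controls at 13 to 15 days.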
# velvetleaf [1] = experiment: Test A pre-/postemergence greenhouse test; assay type: in vivo, Abutilon theophrasti; conditions: for Plant response rating, Velvetleaf: 0 to 100 scale where 0 is no effect and 100 is complete control; for Velvetleaf plant response rating: 0 to 100 scale
# Outline: (§2)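 Test compounds in non-phytotoxic solvent with surfactant were applied as a preemergence soil spray to seeded loam/sand pots and, concurrently, postemergence to plants at 2–10 cm, one- to two-leaf stage. About ten days in greenhouse, then injury visually rated against untreated controls.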
# redroot pigweed = experiment: Test A pre-/postemergence greenhouse test; assay type: in vivo, Amaranthus retroflexus; conditions: for Plant response rating, Pigweed: 0 to 100 scale where 0 is no effect and 100 is complete control; for Pigweed plant response rating: 0 to 100 scale
# Outline: as §2
# giant foxtail = experiment: Test C pre-/postemergence test; assay type: in vivo, Setaria faberii; conditions: for Plant response rating, Foxtail, Giant: 31 g ai/ha, scale 0 to 100 (0 no effect, 100 complete control)
# Outline: (§3)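 Test chemicals were formulated with surfactant in a non-phytotoxic solvent and sprayed both on freshly planted seeds (preemergence) and on 1- to 4-leaf plants of 2–18 cm (postemergence). Flooded-paddy pots received compound directly into 3 cm of standing water, maintained for the test.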
# yellow nutsedge = experiment: Test C pre-/postemergence test; assay type: in vivo, Cyperus esculentus; conditions: for Plant response rating, Nutsedge, Yellow: 31 g ai/ha, scale 0 to 100 (0 no effect, 100 complete control)
# Outline: as §3
# catchweed bedstraw = experiment: Test C pre-/postemergence test; assay type: in vivo, Galium aparine; conditions: for Plant response rating, Galium: 31 g ai/ha, scale 0 to 100 (0 no effect, 100 complete control)
# Outline: as §3
# rice = experiment: Test C flooded paddy test; assay type: in vivo, Oryza sativa; conditions: Flood
# Outline: as §1
# morningglory = experiment: Test C pre-/postemergence test; assay type: in vivo, Ipomoea coccinea; conditions: for Plant response rating, Morningglory: 31 g ai/ha, scale 0 to 100 (0 no effect, 100 complete control)
# Outline: as §3
# downy brome = experiment: Test C pre-/postemergence test; assay type: in vivo, Bromus tectorum; conditions: for Plant response rating, Bromegrass, Downy: 31 g ai/ha, scale 0 to 100 (0 no effect, 100 complete control)
# Outline: as §3
# wheat [2] = experiment: Test A pre-/postemergence greenhouse test; assay type: in vivo, Triticum aestivum; conditions: for Plant response rating, Wheat: 0 to 100 scale where 0 is no effect and 100 is complete control; for Wheat plant response rating: 0 to 100 scale
# Outline: as §2
# johnsongrass = experiment: Test C pre-/postemergence test; assay type: in vivo, Sorghum halepense; conditions: for Plant response rating, Johnsongrass: 31 g ai/ha, scale 0 to 100 (0 no effect, 100 complete control)
# Outline: as §3
# velvetleaf [3] = experiment: Test C pre-/postemergence test; assay type: in vivo, Abutilon theophrasti; conditions: for Plant response rating, Velvetleaf: 31 g ai/ha, scale 0 to 100 (0 no effect, 100 complete control)
# Outline: as §3
# wheat [4] = experiment: Test C pre-/postemergence test; assay type: in vivo, Triticum aestivum; conditions: for Plant response rating, Wheat: 31 g ai/ha, scale 0 to 100 (0 no effect, 100 complete control)
# Outline: as §3
# corn = experiment: Test C pre-/postemergence test; assay type: in vivo, Zea mays; conditions: for Plant response rating, Corn: 31 g ai/ha, scale 0 to 100 (0 no effect, 100 complete control)
# Outline: as §3
# wild oat = experiment: Test C pre-/postemergence test; assay type: in vivo, Avena fatua; conditions: for Plant response rating, Oat, Wild: 31 g ai/ha, scale 0 to 100 (0 no effect, 100 complete control)
# Outline: as §3
# eastern black nightshade = experiment: Test C pre-/postemergence test; assay type: in vivo, Solanum ptycanthum; conditions: for Plant response rating, Nightshade: 31 g ai/ha, scale 0 to 100 (0 no effect, 100 complete control)
# Outline: as §3
# woolly cupgrass = experiment: Test C pre-/postemergence test; assay type: in vivo, Eriochloa villosa; conditions: for Plant response rating, Cupgrass, Woolly: 31 g ai/ha, scale 0 to 100 (0 no effect, 100 complete control)
# Outline: as §3
# [5] = 31 g ai/ha, scale 0 to 100 (0 no effect, 100 complete control)
# [6] = 62 g ai/ha, scale 0 to 100 (0 no effect, 100 complete control)
# [7] = 125 g ai/ha, scale 0 to 100, 0 no effect, 100 complete control, 13 to 15 days
# [8] = 250 g ai/ha, scale 0 to 100, 0 no effect, 100 complete control, 13 to 15 days
# [9] = Postemergence, 500 g ai/ha, 0 is no effect, 100 is complete control
# [10] = Preemergence, 125 g ai/ha, 0 no effect, 100 complete control
# [11] = Preemergence, 500 g ai/ha, 0 no effect, 100 complete control
# [12] = 62 g ai/ha, Preemergence, scale 0 to 100
# [13] = 125 g ai/ha, preemergence, scale 0 (no effect) to 100 (complete control)
# [14] = preemergence, 250 g ai/ha, scale 0 (no effect) to 100 (complete control)
# [15] = 62 g ai/ha, scale 0 to 100, 0 no effect, 100 complete control, 13 to 15 days
# [16] = Postemergence, 125 g ai/ha, 0 is no effect, 100 is complete control
# [17] = preemergence, 125 g ai/ha, scale 0 (no effect) to 100 (complete control)
compound,measurement,setting,value
CC(C)c1cc[n+]([O-])c([S+]([O-])Cc2c(C(F)(F)F)nn(C)c2OC(F)F)c1 (stereo not drawn) [Compound 109],"Plant response rating, Ducksalad",duck salad; [5],0
same,"Plant response rating, Ducksalad",duck salad; [6],40
same,"Plant response rating, Ducksalad",duck salad; [7],45
same,"Plant response rating, Ducksalad",duck salad; [8],65
same,"Plant response rating, Velvetleaf","velvetleaf [1]; Postemergence, 125 g ai/ha",60
same,Velvetleaf plant response rating,velvetleaf [1]; [9],80
same,Velvetleaf plant response rating,velvetleaf [1]; [10],50
same,Velvetleaf plant response rating,velvetleaf [1]; [11],100
same,"Plant response rating, Pigweed","redroot pigweed; Postemergence, 125 g ai/ha",60
same,Pigweed plant response rating,redroot pigweed; [9],90
same,Pigweed plant response rating,redroot pigweed; [10],100
same,Pigweed plant response rating,redroot pigweed; [11],100
same,"Foxtail, Giant plant response rating",giant foxtail; [12],100
same,"Foxtail, Giant plant response rating",giant foxtail; [13],100
same,"Plant response rating, Foxtail, Giant",giant foxtail; Preemergence,100
same,"Foxtail, Giant plant response rating",giant foxtail; [14],100
same,"Nutsedge, Yellow plant response rating",yellow nutsedge; [12],80
same,"Nutsedge, Yellow plant response rating",yellow nutsedge; [13],98
same,"Plant response rating, Nutsedge, Yellow",yellow nutsedge; Preemergence,80
same,"Nutsedge, Yellow plant response rating",yellow nutsedge; [14],100
same,Galium plant response rating,catchweed bedstraw; [12],90
same,Galium plant response rating,catchweed bedstraw; [13],100
same,"Plant response rating, Galium",catchweed bedstraw; Preemergence,60
same,Galium plant response rating,catchweed bedstraw; [14],100
same,"Plant response rating, Rice",rice; [5],0
same,"Plant response rating, Rice",rice; [6],0
same,"Plant response rating, Rice",rice; [7],0
same,"Plant response rating, Rice",rice; [8],20
same,Morningglory plant response rating,morningglory; [12],100
same,Morningglory plant response rating,morningglory; [13],100
same,"Plant response rating, Morningglory",morningglory; Preemergence,80
same,Morningglory plant response rating,morningglory; [14],100
same,"Bromegrass, Downy plant response rating",downy brome; [12],40
same,"Bromegrass, Downy plant response rating",downy brome; [13],95
same,"Plant response rating, Bromegrass, Downy",downy brome; Preemergence,40
same,"Bromegrass, Downy plant response rating",downy brome; [14],100
same,"Plant response rating, Wheat","wheat [2]; Postemergence, 125 g ai/ha",60
same,Wheat plant response rating,wheat [2]; [9],70
same,Wheat plant response rating,wheat [2]; [10],60
same,Wheat plant response rating,wheat [2]; [11],100
same,Johnsongrass plant response rating,johnsongrass; [12],100
same,Johnsongrass plant response rating,johnsongrass; [13],100
same,"Plant response rating, Johnsongrass",johnsongrass; Preemergence,85
same,Johnsongrass plant response rating,johnsongrass; [14],100
same,Velvetleaf plant response rating,velvetleaf [3]; [12],80
same,Velvetleaf plant response rating,velvetleaf [3]; [13],98
same,"Plant response rating, Velvetleaf",velvetleaf [3]; Preemergence,10
same,Velvetleaf plant response rating,velvetleaf [3]; [14],100
same,Wheat plant response rating,wheat [4]; [12],50
same,Wheat plant response rating,wheat [4]; [13],65
same,"Plant response rating, Wheat",wheat [4]; Preemergence,10
same,Wheat plant response rating,wheat [4]; [14],100
same,Corn plant response rating,corn; [12],70
same,Corn plant response rating,corn; [13],95
same,"Plant response rating, Corn",corn; Preemergence,50
same,Corn plant response rating,corn; [14],98
same,"Oat, Wild plant response rating",wild oat; [12],70
same,"Oat, Wild plant response rating",wild oat; [13],90
same,"Plant response rating, Oat, Wild",wild oat; Preemergence,50
same,"Oat, Wild plant response rating",wild oat; [14],98
same,Nightshade plant response rating,eastern black nightshade; [12],80
same,Nightshade plant response rating,eastern black nightshade; [13],95
same,"Plant response rating, Nightshade",eastern black nightshade; Preemergence,20
same,Nightshade plant response rating,eastern black nightshade; [14],100
same,"Cupgrass, Woolly plant response rating",woolly cupgrass; [12],95
same,"Cupgrass, Woolly plant response rating",woolly cupgrass; [13],98
same,"Plant response rating, Cupgrass, Woolly",woolly cupgrass; Preemergence,70
same,"Cupgrass, Woolly plant response rating",woolly cupgrass; [14],98
Cc1cc[n+]([O-])c([S+]([O-])Cc2c(C(F)(F)F)nn(C)c2OCC(F)(F)F)c1 (racemic) [Compound 30],"Plant response rating, Ducksalad",duck salad; [5],65
same,"Plant response rating, Ducksalad",duck salad; [15],75
same,"Plant response rating, Ducksalad",duck salad; [7],100
same,"Plant response rating, Ducksalad",duck salad; [8],100
same,Velvetleaf plant response rating,velvetleaf [1]; [16],50
same,Velvetleaf plant response rating,velvetleaf [1]; [9],70
same,Velvetleaf plant response rating,velvetleaf [1]; [10],90
same,"Plant response rating, Velvetleaf","velvetleaf [1]; Preemergence, 500 g ai/ha",100
same,Pigweed plant response rating,redroot pigweed; [16],90
same,Pigweed plant response rating,redroot pigweed; [9],100
same,Pigweed plant response rating,redroot pigweed; [10],100
same,"Plant response rating, Pigweed","redroot pigweed; Preemergence, 500 g ai/ha",100
same,"Foxtail, Giant plant response rating",giant foxtail; [12],100
same,"Plant response rating, Foxtail, Giant",giant foxtail; Preemergence,100
same,"Plant response rating (0 to 100), Foxtail, Giant","giant foxtail; Preemergence, 250 g ai/ha",100
same,"Nutsedge, Yellow plant response rating",yellow nutsedge; [12],70
same,"Plant response rating, Nutsedge, Yellow",yellow nutsedge; Preemergence,65
same,Galium plant response rating,catchweed bedstraw; [12],100
same,"Plant response rating, Galium",catchweed bedstraw; Preemergence,100
same,"Plant response rating (0 to 100), Galium","catchweed bedstraw; Preemergence, 250 g ai/ha",100
same,"Plant response rating, Rice",rice; [5],0
same,"Plant response rating, Rice",rice; [15],0
same,"Plant response rating, Rice",rice; [7],20
same,"Plant response rating, Rice",rice; [8],80
same,Morningglory plant response rating,morningglory; [12],100
same,"Plant response rating, Morningglory",morningglory; Preemergence,100
same,"Bromegrass, Downy plant response rating",downy brome; [12],0
same,"Plant response rating, Bromegrass, Downy",downy brome; Preemergence,0
same,"Plant response rating (0 to 100), Bromegrass, Downy","downy brome; Preemergence, 250 g ai/ha",60
same,"Bromegrass, Downy plant response rating",downy brome; [17],60
same,Wheat plant response rating,wheat [2]; [16],60
same,Wheat plant response rating,wheat [2]; [9],70
same,Wheat plant response rating,wheat [2]; [10],80
same,"Plant response rating, Wheat","wheat [2]; Preemergence, 500 g ai/ha",90
same,Johnsongrass plant response rating,johnsongrass; [12],100
same,"Plant response rating, Johnsongrass",johnsongrass; Preemergence,85
same,"Plant response rating (0 to 100), Johnsongrass","johnsongrass; Preemergence, 250 g ai/ha",100
same,Velvetleaf plant response rating,velvetleaf [3]; [12],100
same,"Plant response rating, Velvetleaf",velvetleaf [3]; Preemergence,70
same,Wheat plant response rating,wheat [4]; [12],25
same,"Plant response rating, Wheat",wheat [4]; Preemergence,0
same,Corn plant response rating,corn; [12],40
same,"Plant response rating, Corn",corn; Preemergence,5
same,"Plant response rating (0 to 100), Corn","corn; Preemergence, 250 g ai/ha",98
same,Corn plant response rating,corn; [17],85
same,"Oat, Wild plant response rating",wild oat; [12],60
same,"Plant response rating, Oat, Wild",wild oat; Preemergence,10
same,Nightshade plant response rating,eastern black nightshade; [12],100
same,"Plant response rating, Nightshade",eastern black nightshade; Preemergence,100
same,"Cupgrass, Woolly plant response rating",woolly cupgrass; [12],100
same,"Plant response rating, Cupgrass, Woolly",woolly cupgrass; Preemergence,50
same,"Plant response rating (0 to 100), Cupgrass, Woolly","woolly cupgrass; Preemergence, 250 g ai/ha",100
